Experiments:
[1] = system: cell culture; assay: Tolerance of MX in cell culture; format: cell-based; details: MX at 3 mM
[2] = system: H1975 66 shUNG cells; assay: Colony survival assay, H1975 66 shUNG cells; format: cell-based, human
Protocol: (§1) For cells in suspension, colony survival was determined by crystal violet staining of colonies formed after 10-day exposure of 5×10^3 cells to pemetrexed in soft agar. For adherent cells, colony survival was determined by methylene blue staining of colonies formed after 10-day exposure of 100 cells to pemetrexed in 6-well culture dishes. Only colonies containing ≥50 cells were counted. Data points represent percent of colonies relative to untreated control averaged over 3 experiments.
UNG directed shRNA and siRNA plasmids were purchased from Origene. Transfection was carried out according to manufacturer specifications. Stably transfected clones (shRNA) were selected with puromycin with subsequent expansion of a well-isolated colony of cells.

[3] = system: DLD1/UDG−/− cells; assay: Colony survival (clonogenic) assay, UDG−/− cells; format: cell-based, human; details: 5-FU 0-20 μM, temozolomide 0-1500 μM, cisplatin 0-40 μM
Protocol: Recombinant virus was grown in 293T cells and subsequently used to infect DLD1 cells. Selection of positively transfected clones was achieved by the addition of G418 to the culture medium. A second infection of transfected clones with Cre-recombinase adenovirus caused excision of the neomycin resistance cassette. Dflag cell line was produced by transfection of UDG expression vector in UDG^−/− cells to restore UDG activity.
Tumor cells (500-2000/dish) were plated and treated with pemetrexed (0-400 nM), 5-fluorouracil (0-20 μM), temozolomide (0-1500 μM), or cisplatin (0-40 μM). After 7 days, surviving colonies were stained with methylene blue for 30 min at room temperature and the colonies containing more than 50 cells were counted to generate survival curves.

[4] = system: H1299/PR-1 cells; assay: Colony survival assay, H1299/PR-1 pemetrexed-resistant subline; format: cell-based, human; details: PR-1 and PR-2 cells
Protocol: as §1
H1299 cells were exposed to step-wise increasing concentrations of pemetrexed over a period of 4 months. UNG expression was monitored in the bulk population at 2, 8, 12 and 16 weeks prior to administration of the induction dosage and at 24 weeks in a population of bulk chronically exposed cells that had been without pemetrexed for 8 weeks. H1299 cells capable of growth in 50 nM pemetrexed selection pressure were subcloned by limiting dilution in 96 well plates. Independent sublines were designated H1299/PR-1 and H1299/PR-2.

[5] = system: UNG−/− MEFs; details: treated UNG−/− MEFs; cited from earlier work
[6] = system: uracil in DNA of UDG−/− cells; assay: Uracil in DNA by HPLC/MS/MS, UDG−/− cells; format: cell-based, human; details: UDG−/− cells; drug 10 μM, 6-72 hr
Protocol: UDG^−/− and UDG^+/+ cells were exposed to pemetrexed (10 μM) or 5-fluorouracil (10 μM) for 6, 24, 48 and 72 hrs. At indicated time points, cells were harvested and genomic DNA was extracted by phenol/chloroform. Forty μg of DNA were incubated with 10 U of purified UDG (New England Biolabs) in 60 μL of reaction buffer at 37° C. for 2 hrs. The reaction products were dried at 35° C. in a Turbovap under a stream of nitrogen and reconstituted in 150 μL 90% acetonitrile. The analyte was retained by an Atlantis Hilis Silica analytical column (2.1×100 mm, 3.5 μM) and eluted isocratically by a mixture of 90% acetonitrile and 10% 2.0 mM ammonium formate at a flow rate of 0.2 ml/min. The detection was done by an API 3200 MS/MS mass spectrometer.

[7] = system: 293t cells expressing the bacteriophage UNG inhibitor Ugi; details: treated 293t cells expressing Ugi; cited from earlier work

CON [MX, methoxyamine]
tolerance in cell culture [1]: well tolerated

N.N.[Cl][Pt][Cl] [cisplatin]
cross sensitivity of UNG deficient H1975 cells [2]: not
differential sensitivity of UDG−/− vs UDG+/+ cells [3]: no significant differential sensitivity
cross-resistance of PR-1 and PR-2 cells [4]: not resistant

O=c1[nH]c(=O)n([C@H]2C[C@H](O)[C@@H](CO)O2)cc1F [FdUrd]
increase in uracil [5]: 1.5 fold

O=c1[nH]cc(F)c(=O)[nH]1 [5-FU, 5-fluorouracil]
increase in uracil [5]: 1.5 fold
uracil detected in DNA [6]: greater retention of uracil
cross sensitivity of UNG deficient H1975 cells [2]: some cross sensitivity
differential sensitivity of UDG−/− vs UDG+/+ cells [3]: more sensitive
cross-resistance of PR-1 and PR-2 cells [4]: cross-resistance

Cc1nc2ccc(CN(C)c3ccc(C(=O)N[C@@H](CCC(=O)O)C(=O)O)s3)cc2c(=O)[nH]1 [raltitrexed]
increase in uracil [7]: 8 fold
cross sensitivity of UNG deficient H1975 cells [2]: some cross sensitivity
cross-resistance of PR-1 and PR-2 cells [4]: cross-resistance

Cc1cn([C@H]2C[C@H](O)[C@@H](CO)O2)c(=O)[nH]c1=O [thymidine]
effect of supplemental thymidine on pemetrexed sensitivity ([2]; H1975 shUNG cells, 10 μM thymidine): rescued pemetrexed sensitivity

From patent publication US10725042B2, “Methods of diagnosing and treating cancer” (Case Western Reserve University, priority 2012, dated 2020)
